Measurements as given in ChEMBL document CHEMBL1201862, “PubChem BioAssay data set” (2004).
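How tested: cells in 96-well plates exposed to compound for 48 hours at five concentrations. Abbreviation: GI50, concentration required for 50% inhibition of growth.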 Activity calls are given as the source filed them. Cut-off read from the data, not from the text of the source: active = GI50 up to about 1.1 µM and inactive = higher.

Key:
Experiment in all cases: NCI-60 cell line screen, 48 h
T47D = system: T47D
SF-295 = system: SF-295
SK-OV-3 = system: SK-OV-3
COLO 205 = system: COLO 205
Malme-3M = system: Malme-3M
786-0 = system: 786-0
SF-268 = system: SF-268
UACC-257 = system: UACC-257
RPMI-8226 = system: RPMI-8226
HCC 2998 = system: HCC 2998
NCI-H23 = system: NCI-H23
MOLT-4 = system: MOLT-4
SW-620 = system: SW-620
K562 = system: K562
SR = system: SR
DU-145 = system: DU-145
UACC-62 = system: UACC-62
SNB-75 = system: SNB-75
NCI-H522 = system: NCI-H522
A498 = system: A498

Measured: GI50

CC(C)(C)c1ccc(O)c(CN(Cc2cc(C(C)(C)C)ccc2O)C2CCCCC2)c1
inactive: T47D 16.4 µM | SF-295 17.7 µM | SK-OV-3 24.4 µM | COLO 205 2.2 µM | Malme-3M 15.8 µM | 786-0 16 µM | SF-268 15.7 µM | UACC-257 18.3 µM | RPMI-8226 8.73 µM | HCC 2998 2.01 µM | NCI-H23 20.4 µM | MOLT-4 17.7 µM | SW-620 18.3 µM | K562 6.46 µM | SR 18.5 µM | DU-145 19.5 µM | UACC-62 15.7 µM | SNB-75 23.3 µM | NCI-H522 15.8 µM | A498 17.5 µM

Nc1ncnc2nn(C3OC(CO)C(O)C3O)nc12 (stereo not given)
inactive: T47D 4.21 µM | SF-295 22 µM | SK-OV-3 2.67 µM | COLO 205 5.06 µM | Malme-3M 20.5 µM | 786-0 10.4 µM | SF-268 20.4 µM | UACC-257 23.2 µM | RPMI-8226 3.64 µM | HCC 2998 7.6 µM | NCI-H23 20.3 µM | MOLT-4 15.1 µM | SW-620 6.52 µM | K562 5.46 µM | SR 2.99 µM | DU-145 5.26 µM | UACC-62 25.4 µM | SNB-75 9.77 µM | NCI-H522 6.82 µM | A498 10.2 µM

CCC1OC(=O)CC(O)C(C)C(OC2OC(C)C(O)C(N(C)C)C2O)C(CC=O)CC(C)C(=O)/C=C/C2(C)OC2C1C (stereo not given)
inactive: T47D 17.2 µM | SF-295 67.9 µM | SK-OV-3 58.7 µM | COLO 205 19.6 µM | Malme-3M 11.6 µM | 786-0 24.1 µM | SF-268 24.9 µM | UACC-257 17.3 µM | RPMI-8226 11.1 µM | HCC 2998 15.9 µM | NCI-H23 26.4 µM | MOLT-4 14.1 µM | SW-620 20 µM | K562 12 µM | SR 13.5 µM | DU-145 20.7 µM | UACC-62 19.8 µM | SNB-75 23.5 µM | NCI-H522 18.5 µM | A498 36.9 µM

O=c1[nH]nc(Cc2ccc(Cl)cc2)n1/N=C/c1cccs1
inactive: T47D > 100 µM | SF-295 18.9 µM | SK-OV-3 43.9 µM | COLO 205 > 100 µM | Malme-3M > 100 µM | 786-0 26.6 µM | SF-268 15.9 µM | UACC-257 > 100 µM | RPMI-8226 > 100 µM | HCC 2998 > 100 µM | NCI-H23 24.9 µM | MOLT-4 > 100 µM | SW-620 > 100 µM | K562 > 100 µM | SR > 100 µM | DU-145 99.8 µM | UACC-62 > 100 µM | SNB-75 19.1 µM | NCI-H522 23.7 µM | A498 29.1 µM
